The values below come from ChEMBL document CHEMBL2073959, “The human bile salt export pump: characterization of substrate specificity and identification of inhibitors” (Gastroenterology, 2002).

For test [1], the target named is T1, Bile salt export pump (Homo sapiens, UniProt O95342). Put plainly: TP_TRANSPORTER: competitive inhibition of Taurocholate uptake in membrane vesicles prepared from High Five cells infected with the ABCB11 baculovirus. The test is classed as functional, cell membranes, BTI-TN-5B1-4, Membrane vesicle.
The target of test [2] is T1, Bile salt export pump. Kind of test: TP_TRANSPORTER: inhibition of Taurocholate uptake(Rifampicin SV 30uM, 50 % of control) in membrane vesicles prepared from High Five cells infected with the ABCB11 baculovirus. The test is classed as functional, cell membranes, BTI-TN-5B1-4, Membrane vesicle.

T1 sequence (O95342 whole entry): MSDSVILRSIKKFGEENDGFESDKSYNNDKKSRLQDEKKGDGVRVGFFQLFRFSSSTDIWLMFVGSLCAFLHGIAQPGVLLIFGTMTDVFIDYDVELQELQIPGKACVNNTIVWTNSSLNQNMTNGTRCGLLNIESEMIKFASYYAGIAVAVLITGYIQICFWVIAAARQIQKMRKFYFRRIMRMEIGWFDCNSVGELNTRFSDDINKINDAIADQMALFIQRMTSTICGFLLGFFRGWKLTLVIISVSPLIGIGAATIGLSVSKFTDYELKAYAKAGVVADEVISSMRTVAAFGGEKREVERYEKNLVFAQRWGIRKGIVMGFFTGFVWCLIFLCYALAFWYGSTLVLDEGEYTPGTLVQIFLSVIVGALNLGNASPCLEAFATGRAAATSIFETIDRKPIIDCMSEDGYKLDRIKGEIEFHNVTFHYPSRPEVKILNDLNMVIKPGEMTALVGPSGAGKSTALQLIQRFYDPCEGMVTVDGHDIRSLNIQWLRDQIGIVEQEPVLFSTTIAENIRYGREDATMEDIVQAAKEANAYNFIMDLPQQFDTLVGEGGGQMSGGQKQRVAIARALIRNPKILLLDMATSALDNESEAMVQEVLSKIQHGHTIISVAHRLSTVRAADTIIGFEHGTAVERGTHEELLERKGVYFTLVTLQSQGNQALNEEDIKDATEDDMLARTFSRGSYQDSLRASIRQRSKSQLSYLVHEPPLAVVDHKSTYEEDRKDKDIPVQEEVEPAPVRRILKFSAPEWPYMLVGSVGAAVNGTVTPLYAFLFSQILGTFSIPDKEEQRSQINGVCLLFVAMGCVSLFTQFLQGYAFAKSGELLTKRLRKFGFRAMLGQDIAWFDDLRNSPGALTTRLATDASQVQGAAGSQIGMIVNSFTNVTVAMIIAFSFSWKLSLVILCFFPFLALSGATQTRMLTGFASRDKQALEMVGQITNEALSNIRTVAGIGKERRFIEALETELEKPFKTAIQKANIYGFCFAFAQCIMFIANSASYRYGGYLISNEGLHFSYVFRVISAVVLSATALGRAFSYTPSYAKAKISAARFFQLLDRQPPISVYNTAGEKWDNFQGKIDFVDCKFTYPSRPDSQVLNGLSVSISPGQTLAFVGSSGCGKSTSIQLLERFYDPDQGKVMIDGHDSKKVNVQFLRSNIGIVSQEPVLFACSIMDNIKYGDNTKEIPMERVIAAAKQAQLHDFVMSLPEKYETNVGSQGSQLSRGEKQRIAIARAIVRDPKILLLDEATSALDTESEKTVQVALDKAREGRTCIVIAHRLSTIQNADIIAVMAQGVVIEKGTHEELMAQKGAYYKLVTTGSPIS

On to `C[C@H](CCC(=O)NCC(=O)O)[C@H]1CC[C@H]2[C@@H]3[C@H](O)C[C@@H]4C[C@H](O)CC[C@]4(C)[C@H]3CC[C@]12C` [GLYCOCHENODEOXYCHOLATE], for which the Ki (as a rule, a dissociation constant, usually derived from enzyme kinetics or from competition with a known ligand) at Bile salt export pump [1] came to 7 µM.

As to `C[C@H](CCC(=O)NCC(=O)O)[C@H]1CC[C@H]2[C@@H]3[C@H](O)C[C@@H]4C[C@H](O)CC[C@]4(C)[C@H]3C[C@H](O)[C@]12C` [GLYCOCHOLIC ACID], the Ki at Bile salt export pump [1] is 11 µM.

Regarding `CO[C@H]1/C=C/O[C@@]2(C)Oc3c(C)c(O)c4c(O)c(cc(O)c4c3C2=O)NC(=O)/C(C)=C\C=C\[C@H](C)[C@H](O)[C@@H](C)[C@@H](O)[C@@H](C)[C@H](OC(C)=O)[C@@H]1C` [RIFAMYCIN], the Ki at Bile salt export pump [2] came to 31 µM.

`C[C@H](CCC(=O)NCCS(=O)(=O)O)[C@H]1CC[C@H]2[C@@H]3[C@H](O)C[C@@H]4C[C@H](O)CC[C@]4(C)[C@H]3CC[C@]12C` [TAUROCHENODEOXYCHOLATE]: at Bile salt export pump [1], the Ki was 28 µM.
